Here are results for 15 compounds from ChEMBL document CHEMBL1134732, “Acid dissociation constant, a potential physicochemical factor in the inhibition of the enzyme estrone sulfatase (ES)” (Bioorg Med Chem Lett, 2001).

Data set [1] in a line: Dissociation constant was determined. Format: physicochemical.
The target of data set [2] is T1, Steryl-sulfatase (Homo sapiens) (UniProt P08842).
T1 sequence (whole entry): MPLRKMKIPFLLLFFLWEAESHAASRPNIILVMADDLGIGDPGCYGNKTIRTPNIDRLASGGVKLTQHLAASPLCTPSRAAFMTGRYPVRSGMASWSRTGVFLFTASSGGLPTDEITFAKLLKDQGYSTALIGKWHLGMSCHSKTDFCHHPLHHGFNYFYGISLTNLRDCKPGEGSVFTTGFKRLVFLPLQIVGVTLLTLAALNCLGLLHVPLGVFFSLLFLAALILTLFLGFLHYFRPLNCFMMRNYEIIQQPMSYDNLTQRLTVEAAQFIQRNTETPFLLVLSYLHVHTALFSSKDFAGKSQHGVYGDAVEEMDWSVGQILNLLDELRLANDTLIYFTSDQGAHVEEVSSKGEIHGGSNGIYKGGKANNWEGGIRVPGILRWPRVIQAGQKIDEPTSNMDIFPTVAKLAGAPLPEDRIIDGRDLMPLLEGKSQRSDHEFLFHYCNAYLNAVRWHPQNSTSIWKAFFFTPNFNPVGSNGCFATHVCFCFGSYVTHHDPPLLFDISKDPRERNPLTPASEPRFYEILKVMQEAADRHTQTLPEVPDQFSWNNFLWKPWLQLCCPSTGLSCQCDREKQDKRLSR
Kind of data set: (§1) Potency for the inhibition of estrone sulfatase relative to coumate.

For data set [3], the target named is T2, Steryl-sulfatase (Homo sapiens, UniProt P08842).
T2 sequence (P08842 whole entry): T1 sequence (whole entry)
As to the kind of experiment: Inhibitory concentration against estrone sulfatase.

Data set [4] in a line: as §1.

As usually defined, the pKa is the pH at which an ionisable group is half protonated. The term IC50 denotes the concentration needed to halve the response being measured. Read a low IC50 as greater potency. In data set [1], `N#Cc1cccc(OS(N)(=O)=O)c1` yielded a pKa of 8.54. Besides, the Relative potency in data set [2] was 16. In data set [3], this compound yielded an IC50 of 190 µM.
`NS(=O)(=O)Oc1ccc2ccc(=O)oc2c1` yielded a Relative potency in data set [4] of 1. In data set [3], this compound returned a half-inhibitory concentration (IC50) of 12 µM.
For the compound `Cc1cccc(OS(N)(=O)=O)c1`, in data set [1], the pKa came to 10. The 50% inhibitory concentration (IC50) in data set [3] was above 10000 µM.
In turn, `NS(=O)(=O)Oc1cccc([N+](=O)[O-])c1` displayed a pKa in data set [1] of 8.28. This compound also came in with a Relative potency in data set [2] of 10. Further, inhibition in data set [3] was half-maximal at 120 µM (IC50).
The like results for `NS(=O)(=O)Oc1ccc(Br)cc1` were, in that order, 9.29, 76 and 912 µM.
In data set [1], `NS(=O)(=O)Oc1ccc(F)cc1` showed a pKa of 9.8. Further, in data set [3], the 50% inhibitory concentration (IC50) is above 10000 µM.
Compound `NS(=O)(=O)Oc1cccc(F)c1` yielded a pKa in data set [1] of 9.16. This compound had a Relative potency in data set [2] of 174. This compound also yielded a half-maximal inhibitory concentration (IC50) in data set [3] of 2090 µM.
As to `NS(=O)(=O)Oc1ccccc1` [PHENYLSULFAMATE], the pKa in data set [1] was 9.98. In data set [3], this compound returned an IC50 above 10000 µM.
In the case of `C[C@]12CC[C@@H]3c4ccc(OS(N)(=O)=O)cc4CC[C@H]3[C@@H]1CCC2=O` [EMATE], the Relative potency in data set [4] was found to be 0.008. Inhibition in data set [3] was half-maximal at 0.1 µM (IC50).
The compound `NS(=O)(=O)Oc1cccc(Cl)c1` registered a pKa in data set [1] of 9. In addition, in data set [2], the Relative potency is 45. In data set [3], this compound had an IC50 of 537 µM.
Compound `NS(=O)(=O)Oc1cccc(Br)c1` came in with a pKa in data set [1] of 8.95. In data set [2], the Relative potency came to 21. In data set [3], this compound came in with an IC50 of 257 µM.
Consider `NS(=O)(=O)Oc1ccc(Cl)cc1`, for which, in data set [1], the pKa was found to be 9.5. Besides, the Relative potency in data set [2] was found to be 132. Besides, the IC50 in data set [3] turned out to be 1580 µM.
`N#Cc1ccc(OS(N)(=O)=O)cc1`: the pKa in data set [1] was determined as 8.02. The same compound showed a Relative potency in data set [2] of 25. The midpoint of inhibition in data set [3], the IC50, lay at 300 µM.
Take `Cc1ccc(OS(N)(=O)=O)cc1`: in data set [1], the pKa turned out to be 10.2. The compound further showed an IC50 in data set [3] above 10000 µM.
In data set [1], `NS(=O)(=O)Oc1ccc([N+](=O)[O-])cc1` registered a pKa of 7.15. This compound also yielded a Relative potency in data set [2] of 27.5. Moreover, in data set [3], the IC50 turned out to be 330 µM.
